Where “and” joins values, the source holds several entries; their conditions need not be identical. Equal values may be shown once. Read-outs that look alike come from different tables or passages of the source.
Assays:
[1] = system: fEPSP from the stratum radiatum layer of the CA1 region of the hippocampus; experiment: In vitro electrophysiology on hippocampal brain slices (fEPSP amplitude, CA1); format: cell-based, Wistar rats; settings: for fEPSP amplitude, minutes 31-40 of recording (washing in phase): normalized to the averages of the amplitudes of the control phase, last 10 minutes of washing in; for fEPSP amplitude, minutes 61-70 of recording (washing off phase): after 200 μM, normalized to the control phase, last 10 minutes of recording
Method: In the course of our experiments young adult (200-250 g) male Wistar rats were used. Until the start of the experiments the animals were housed in the animal house of the Department of Physiology, Anatomy and Neuroscience, University of Szeged, in standard plastic cages, where 12-12 hours light-dark cycles, standard 23° C. temperature and free access to water and food were provided. In the course of the experiments we aimed at using a minimum number of animals and to cause them the smallest degree of suffering. In each case the principles relating to the care of laboratory animals, the animal care related protocol approved by the Hungarian Health Committee (1998), and the Decree of the Council of the European Communities of 22 Sep. 2010 (2010/63/EU) were followed.
The animals received Isoflurane (3% and then 1%) inhalation anaesthesia for the electrophysiological measurements. After ensuring that the animals were in a deep sleep phase (the paw withdrawal reflex occurring for squeezing stopped), they were decapitated. By incising the head skin and the underlying connective tissue the skull was exposed. Then incisions were made in longitudinal direction along the sagittal suture as well as in transversal direction along the suture coronalis, furthermore caudally therefrom in the right and left direction. After the opening the bregma coronalis incisions were made behind the bulbi and in front of the cerebellum, allowing the removal of the approx. 3 mm thick brain region, containing the hippocampus. From the middle part of the hippocampus 350 μm thick slices were prepared with vibratome (Leica VT1200S, Germany). The cutting was performed in artificial cerebrospinal fluid (aCSF), whose temperature was 4° C. maximum. The aCSF was composed of: 130 mM NaCl, 3.5 mM KCl, 1 mM NaH2PO4, 24 mM NaHCO3, 1 mM […], 3 mM MgSO4 and 10 mM D-glucose (Sigma, Germany). The cut slices were placed in recording aCSF of room temperature, whose composition differed only in the 3 mM CaCl2) and 1.5 MgSO4 concentrations from the one used for cutting. Both the cutting and the recording aCSF were oxygenated with carbogen (95% O2, 5% CO2), for providing the suitable and uninterrupted O2 supply. After the preparation of all the hippocampal slices the recording aCSF in the slice holder container was warmed to 34-35° C., and the brain slices were left to recover for one hour under these conditions in order to assure the proceeding of the regeneration processes started against the damages caused in the course of the slice-preparation. […]
For the electrophysiological recordings a concentric stainless steel electrode (Neuron elektród kft; Budapest, Hungary) was placed in the stratum radiatum layer between the CA3-CA1 regions of the hippocampus, wherein the stimulation was performed with constant current intensity, with 0.2 ms pulses of 0.033 Hz frequency. By positioning the recording electrodes of 2-3 MΩ filled with aCSF in orthodrom position from the previously mentioned region, stimulating postsynaptic field potentials (fEPSP) were conducted from the stratum radiatum layer of the CA1 region, and their amplitudes were monitored.
Submaximal stimulation was used, i.e. about 70-80% of the intensity of the smallest pulse causing the fEPSP of maximum amplitude was used. […] The results were evaluated with the OriginPro 8 (OriginLab Corporation, Northampton, Mass., USA) software. […]

[2] = Solubility compared to previously synthesized analogues (statement); format: physicochemical
[3] = Passage on the culture model of the blood-brain barrier (bidirectional permeability); format: in vitro ADME, rat; settings: rat, 10 μM; for Papp A→B at 60 min, 10 μM / Papp A→B at 30 min, 10 μM: AB (from blood to brain) direction; for Papp B→A at 60 min, 10 μM / Papp B→A at 30 min, 10 μM: BA (from brain to blood) direction; for efflux ratio at 60 min, 10 μM: read-out: Efflux ratio: Papp BA/PappAB
From the text: (§1) The blood-brain barrier model prepared by the co-cultivation of three cell types (primary rat brain endothelial cells, primary glia and brain microvascular pericyte cells) was used for the permeability experiments (Nakagawa S, Deli M A, Kawaguchi H, Shimizudani T, Shimono T, Kittel A, Tanaka K, Niwa M. Anew blood-brain barrier model using primary rat brain endothelial cells, pericytes and astrocytes. Neurochem Int. 2009 March-April; 54(3-4):253-63. doi: 10.1016/j.neuint.2008.12.002.; Veszelka S, Tóth A E, Walter F R, Datki Z, Mózes E, Fülöp L, Bozsó Z, Hellinger E, Vastag M, Orsolits B, Környei Z, Penke B, Deli M A. Docosahexaenoic acid reduces amyloid-β induced toxicity in cells of the neurovascular unit. J Alzheimers Dis. 2013; 36(3):487-501.).
(§2) Passage of the compounds of the invention was tested in two directions AB (“from blood to brain”) and BA (“from brain to blood”), in 10 μM concentration.
(§3) The permeability experiment took 60 minutes, with sampling at 30 and 60 minutes from the acceptor compartment.
(§4) The concentrations of the active substances passed through the endothelial cell layer were determined with mass spectrometry. By using the measured concentrations and the known data (volume, starting concentration) the clearance (μl) values, or from the clearance and volume data, by taking the surface and the time into consideration, the so-called permeability coefficients (papp, apparent permeability coefficient; measurement unit 10^−6 cm/s) were calculated, which provide the permeation rates of the compounds.

[4] = system: blood-brain barrier model (co-cultivation of primary rat brain endothelial cells, primary glia and brain microvascular pericyte cells); experiment: as above; format: in vitro ADME; settings: for Papp A-B 30′ / Papp A-B 60′ / Papp B-A 30′ / Papp B-A 60′ / Passage through the blood-brain barrier compared to the 24/1 and 24/2 comparative compounds / Efflux ratio: Papp BA/PappAB: 10 μM; for Papp A-B 30′ / Papp A-B 60′: AB (from blood to brain) direction; for Papp A-B 30′ / Papp B-A 30′: sampling at 30 minutes; for Papp A-B 30′ / Papp A-B 60′ / Papp B-A 30′ / Papp B-A 60′: single replicates; for Papp A-B 60′ / Papp B-A 60′: sampling at 60 minutes; for Papp B-A 30′ / Papp B-A 60′: BA (from brain to blood) direction; for Passage through the blood-brain barrier compared to the 24/1 and 24/2 comparative compounds: FIG. 2; for Permeability grade in words: blood-brain barrier model
From the text: as §1, §2, §3, §4

[5] = average, n=6, read-out: Papp A-B Average
[6] = sampling at 60 minutes, single replicates, read-out: Papp A-B 60′
[7] = average, n=6, read-out: Papp B-A Average
[8] = sampling at 60 minutes, single replicates, read-out: Papp B-A 60′

| SMILES | Papp A→B at 60 min, 10 μM [3, 5] [×10⁻⁶ cm/s] | Papp A→B at 30 min, 10 μM ([3]; single replicates) [×10⁻⁶ cm/s] | Papp A→B at 60 min, 10 μM [3, 6] [×10⁻⁶ cm/s] | Papp B→A at 60 min, 10 μM [3, 7] [×10⁻⁶ cm/s] | Papp B→A at 30 min, 10 μM ([3]; single replicates) [×10⁻⁶ cm/s] | Papp B→A at 60 min, 10 μM [3, 8] [×10⁻⁶ cm/s] | efflux ratio at 60 min, 10 μM [3] | Papp A-B 30′ [4] | Papp A-B 60′ [4] | Papp B-A 30′ [4] | Papp B-A 60′ [4] | Passage through the blood-brain barrier compared to the 24/1 and 24/2 comparative compounds [4] | also measured |
| --- | --- | --- | --- | --- | --- | --- | --- | --- | --- | --- | --- | --- | --- |
| CCN(CC)Cc1c(C(=O)NCCN2CCCC2)nc2ccccc2c1O [Example 17, 3-((diethylamino)methyl)-4-hydroxy-N-(2-(pyrrolidin-1-yl)ethyl)quinoline-2-carboxamide] | – | – | – | – | – | – | – | – | – | – | – | – | fEPSP amplitude, minutes 31-40 of recording (washing in phase) ([1]; 200 μM): 124.66±10.43%; fEPSP amplitude, minutes 61-70 of recording (washing off phase) [1]: 110.73±7.63% |
| O=C(NCCN1CCCC1)c1nc2ccccc2c(O)c1CN1CCOCC1 [Example 20, 4-hydroxy-3-(morpholinomethyl)-N-(2-(pyrrolidin-1-yl)ethyl)quinoline-2-carboxamide] | 18.6 | 16.4 | 16.9 | 25 | 22.3 | 24.9 | ~1 | 20.1 10^−6 cm/s and 17.9 10^−6 cm/s | 21.5 10^−6 cm/s and 18.8 10^−6 cm/s | 24.3 10^−6 cm/s and 25.1 10^−6 cm/s | 26.7 10^−6 cm/s and 26.6 10^−6 cm/s | triple | Solubility compared to previously synthesized analogues or other analogues with similar effect [2]: better solubility; fEPSP amplitude, minutes 31-40 of recording (washing in phase) ([1]; 200 μM): 58.14±10.16%; fEPSP amplitude, minutes 61-70 of recording (washing off phase) [1]: 107.14±17.99% |
| Cl.O=C(O)c1nc2ccccc2c(O)c1CN1CCOCC1 [Example 5, 4-hydroxy-3-(morpholinomethyl)quinoline-2-carboxylic acid hydrochloride] | 11 | 7.4 | 12.4 | 5.4 | 2.5 | 7.6 | ~0.5 | – | – | – | – | doubled | Papp A-B 30′ ([4]; hydrochloride): 8.9 10^−6 cm/s and 8.2 10^−6 cm/s; Papp A-B 60′ ([4]; hydrochloride): 15.4 10^−6 cm/s and 13.9 10^−6 cm/s; Papp B-A 30′ ([4]; hydrochloride): 4.0 10^−6 cm/s and 3.2 10^−6 cm/s; Papp B-A 60′ ([4]; hydrochloride): 7.8 10^−6 cm/s and 7.5 10^−6 cm/s; Permeability grade in words [4]: medium permeability |
| Cl.O=C(NCCN1CCCC1)c1cc(O)c2ccccc2n1 [comparative 24/1, 4-hydroxy-N-(2-(pyrrolidin-1-yl)ethyl)quinoline-2-carboxamide, reference compound] | 5.7 | 5.4 | 7.2 | 8.8 | 8.3 | 12.2 | ~1 | 4.5 10^−6 cm/s and 7.4 10^−6 cm/s | 3.9 10^−6 cm/s and 5.8 10^−6 cm/s | 8.1 10^−6 cm/s and 4.2 10^−6 cm/s | 10.5 10^−6 cm/s and 9.2 10^−6 cm/s | – | Efflux ratio: Papp BA/PappAB [4]: 1.5 |
| CN(C)CCNC(=O)c1nc2ccccc2c(O)c1CN1CCOCC1 [Example 16, N-(2-(dimethylamino)ethyl)-4-hydroxy-3-(morpholinomethyl)quinoline-2-carboxamide] | 36.9 | 32.7 | 37.8 | 22 | 20.1 | 21.7 | ~0.5 | 37.2 10^−6 cm/s and 38.0 10^−6 cm/s | 37.4 10^−6 cm/s and 38.6 10^−6 cm/s | 21.8 10^−6 cm/s and 21.3 10^−6 cm/s | 23.2 10^−6 cm/s and 23.8 10^−6 cm/s | six times higher | Permeability grade in words [4]: high permeability |
| CN(C)CCNC(=O)c1cc(O)c2ccccc2n1.Cl [comparative 24/2, N-(2-(dimethylamino)ethyl)-4-hydroxyquinoline-2-carboxamide, reference compound] | 6.7 | 4.2 | 6 | 8.1 | 7.6 | 9.7 | ~1 | 8.3 10^−6 cm/s and 6.4 10^−6 cm/s | 8.4 10^−6 cm/s and 6.7 10^−6 cm/s | 7.9 10^−6 cm/s and 7.2 10^−6 cm/s | 7.9 10^−6 cm/s and 8.5 10^−6 cm/s | – | Efflux ratio: Papp BA/PappAB [4]: 1.2 |
| O=C(O)c1cc(O)c2ccccc2n1 [kynurenic acid, 4-hydroxy-quinoline-2-carboxylic acid] | – | – | – | – | – | – | – | – | – | – | – | – | fEPSP amplitude decrease in the last 10 minutes of the washing in phase ([1]; 200 μM, preliminary experimental results): 53.86±6.09% |

Reference: patent US10870633B2, “Types of C-3 substituted kynurenic acid derivatives with improved neuroprotective activity” (SZEGEDI TUDOMÁNYEGYETEM, priority 2016, dated 2020)
